Literature values in patent US20260335248A1, “ANTIFUNGAL AGENT ENCAPSULATED IN A LIPID NANOCRYSTAL FOR TREATING MUCORMYCOSIS” (MATINAS BIOPHARMA NANOTECHNOLOGIES, INC., priority 2022, published 2026).

Test system: mucormycosis
Details: Luo et al., 2013

Structure (SMILES): CC[C@@H]([C@H](C)O)n1ncn(-c2ccc(N3CCN(c4ccc(OC[C@@H]5CO[C@@](Cn6cncn6)(c6ccc(F)cc6F)C5)cc4)CC3)cc2)c1=O [Posaconazole, posaconazole]
- fungal burdens in lungs and brain compared with placebo: effective in reducing the fungal burdens in lungs and brain
